These results are taken from publication PMC7451048 (Drug metabolism letters, 2019).

The target in one data set is MRP2 (Homo sapiens, UniProt Q92887). The data set can be described thus: Plasma membrane vesicle transport assay, MRP2 vesicles. To be noted: for Difference in MRP2 vesicle uptake between ATP and AMP: 10 μM, 1 min (Fig. 9).
For data set [1], the target named is T1, OATP1B1 (Homo sapiens, UniProt Q9Y6L6).
T1 sequence (Q9Y6L6 1-691): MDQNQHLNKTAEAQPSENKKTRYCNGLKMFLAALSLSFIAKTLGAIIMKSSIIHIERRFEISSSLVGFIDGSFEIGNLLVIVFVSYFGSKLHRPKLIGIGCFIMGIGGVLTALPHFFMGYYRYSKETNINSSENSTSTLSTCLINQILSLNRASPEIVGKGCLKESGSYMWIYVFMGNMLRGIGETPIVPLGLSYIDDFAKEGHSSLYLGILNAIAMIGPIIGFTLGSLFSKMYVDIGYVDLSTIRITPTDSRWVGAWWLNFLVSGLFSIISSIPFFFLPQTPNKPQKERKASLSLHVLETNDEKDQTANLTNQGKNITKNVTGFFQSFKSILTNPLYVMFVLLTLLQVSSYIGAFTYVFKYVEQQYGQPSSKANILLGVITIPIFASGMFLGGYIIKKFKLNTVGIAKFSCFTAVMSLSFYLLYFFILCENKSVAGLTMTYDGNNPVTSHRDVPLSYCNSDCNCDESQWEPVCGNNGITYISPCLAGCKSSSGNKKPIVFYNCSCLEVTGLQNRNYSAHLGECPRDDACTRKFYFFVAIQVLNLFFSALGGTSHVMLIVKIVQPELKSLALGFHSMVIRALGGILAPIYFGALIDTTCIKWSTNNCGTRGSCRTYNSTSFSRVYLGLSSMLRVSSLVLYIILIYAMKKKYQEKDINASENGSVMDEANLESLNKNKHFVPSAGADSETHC

A further data set deals with P-gp (Homo sapiens, UniProt P08183). Nature of the data set: Plasma membrane vesicle transport assay, P-gp vesicles. It is filed as in vitro ADME. To be noted: for Difference in P-gp vesicle uptake between ATP and AMP: 10 μM, 1 min (Fig. 9).
Sequence of P-gp (P08183 whole entry): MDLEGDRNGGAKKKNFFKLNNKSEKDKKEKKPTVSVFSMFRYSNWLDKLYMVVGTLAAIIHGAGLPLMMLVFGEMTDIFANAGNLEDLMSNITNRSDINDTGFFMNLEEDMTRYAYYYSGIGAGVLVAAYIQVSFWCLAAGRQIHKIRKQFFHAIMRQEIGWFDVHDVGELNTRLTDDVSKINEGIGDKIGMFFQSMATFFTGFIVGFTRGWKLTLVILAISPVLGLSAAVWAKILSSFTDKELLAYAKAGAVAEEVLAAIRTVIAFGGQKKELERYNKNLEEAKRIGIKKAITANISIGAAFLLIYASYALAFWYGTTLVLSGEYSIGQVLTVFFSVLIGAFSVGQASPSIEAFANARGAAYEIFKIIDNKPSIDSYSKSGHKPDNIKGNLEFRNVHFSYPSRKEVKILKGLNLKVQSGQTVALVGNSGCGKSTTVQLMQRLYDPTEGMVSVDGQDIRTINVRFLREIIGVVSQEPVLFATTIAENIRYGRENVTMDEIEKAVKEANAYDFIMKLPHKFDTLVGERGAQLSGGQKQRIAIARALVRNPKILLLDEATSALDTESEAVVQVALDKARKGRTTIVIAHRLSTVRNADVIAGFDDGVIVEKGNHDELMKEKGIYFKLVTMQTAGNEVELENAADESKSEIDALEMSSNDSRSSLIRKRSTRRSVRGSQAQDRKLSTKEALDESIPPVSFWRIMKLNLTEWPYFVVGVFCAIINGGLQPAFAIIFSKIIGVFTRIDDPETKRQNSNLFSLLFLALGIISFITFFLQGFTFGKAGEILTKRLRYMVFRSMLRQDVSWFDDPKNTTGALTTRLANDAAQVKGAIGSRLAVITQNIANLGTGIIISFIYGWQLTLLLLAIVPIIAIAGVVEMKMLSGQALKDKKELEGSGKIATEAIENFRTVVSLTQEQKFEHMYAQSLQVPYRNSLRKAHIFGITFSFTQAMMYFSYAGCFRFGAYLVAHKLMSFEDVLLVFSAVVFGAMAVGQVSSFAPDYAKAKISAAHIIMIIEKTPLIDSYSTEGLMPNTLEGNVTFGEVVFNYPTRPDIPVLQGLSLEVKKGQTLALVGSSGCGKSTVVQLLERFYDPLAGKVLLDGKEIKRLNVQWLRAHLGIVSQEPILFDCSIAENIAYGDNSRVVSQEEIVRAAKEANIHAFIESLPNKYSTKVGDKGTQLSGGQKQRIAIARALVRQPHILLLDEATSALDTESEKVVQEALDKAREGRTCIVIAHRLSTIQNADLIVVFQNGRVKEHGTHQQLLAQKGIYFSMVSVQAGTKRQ
The target of the next data set is T2, BCRP (Homo sapiens, UniProt Q9UNQ0).
T2 sequence (Q9UNQ0 1-655): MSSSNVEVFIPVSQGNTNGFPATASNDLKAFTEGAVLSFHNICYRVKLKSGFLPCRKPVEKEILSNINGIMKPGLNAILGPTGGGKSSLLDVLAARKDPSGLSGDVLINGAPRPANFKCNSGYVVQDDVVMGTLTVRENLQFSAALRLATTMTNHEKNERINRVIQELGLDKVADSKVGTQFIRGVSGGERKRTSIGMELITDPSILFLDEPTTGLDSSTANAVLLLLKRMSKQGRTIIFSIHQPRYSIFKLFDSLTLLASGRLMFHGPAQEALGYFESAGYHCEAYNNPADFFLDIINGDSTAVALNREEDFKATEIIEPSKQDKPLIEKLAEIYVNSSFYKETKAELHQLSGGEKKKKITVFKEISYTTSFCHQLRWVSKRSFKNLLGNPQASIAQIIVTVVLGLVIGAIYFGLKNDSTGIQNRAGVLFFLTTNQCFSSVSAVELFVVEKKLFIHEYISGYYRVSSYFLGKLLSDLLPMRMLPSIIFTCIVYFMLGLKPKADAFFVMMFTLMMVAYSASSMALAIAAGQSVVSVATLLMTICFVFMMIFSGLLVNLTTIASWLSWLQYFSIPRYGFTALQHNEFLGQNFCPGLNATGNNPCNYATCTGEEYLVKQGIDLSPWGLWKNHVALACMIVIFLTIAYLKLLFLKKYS
The data set can be described thus: Plasma membrane vesicle transport assay, BCRP vesicles. As to conditions: for Difference in BCRP vesicle uptake between ATP and AMP: 10 μM, 1 min (Fig. 9). It is filed as in vitro ADME.

Data set [2] deals with T1, OATP1B1. As to conditions: 3 min; for Inhibition of cellular uptake by RIF, OATP1B1-overexpressing cells: 20 μM RIF, BUP 5 μM, OHB 10 μM, TB 20 μM, EB 30 μM; for Apparent Vmax: net cellular uptake, CHO/OATP1B1-overexpressing cells, mean ± SD.
The next data set has as its target T3, OCT1 (Homo sapiens, UniProt O15245).
T3 sequence (O15245 1-554): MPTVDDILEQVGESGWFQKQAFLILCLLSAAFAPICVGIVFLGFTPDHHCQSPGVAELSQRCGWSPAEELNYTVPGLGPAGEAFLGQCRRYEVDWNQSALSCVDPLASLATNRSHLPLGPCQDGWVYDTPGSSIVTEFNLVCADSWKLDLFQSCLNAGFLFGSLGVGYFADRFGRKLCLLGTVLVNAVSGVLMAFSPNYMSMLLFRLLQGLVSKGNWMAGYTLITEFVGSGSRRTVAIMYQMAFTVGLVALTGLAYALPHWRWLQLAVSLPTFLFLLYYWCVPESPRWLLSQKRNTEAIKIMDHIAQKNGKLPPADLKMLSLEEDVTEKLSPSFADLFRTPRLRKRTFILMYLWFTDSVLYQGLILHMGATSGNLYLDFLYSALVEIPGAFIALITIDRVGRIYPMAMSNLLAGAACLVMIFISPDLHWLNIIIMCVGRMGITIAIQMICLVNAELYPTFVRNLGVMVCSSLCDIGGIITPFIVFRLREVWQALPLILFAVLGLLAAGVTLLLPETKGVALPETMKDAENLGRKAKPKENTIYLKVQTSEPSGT
Nature of the data set: Cellular uptake assay, HEK/OCT1 vs HEK empty vector cells.

Another data set concerns the target T4, OATP1B3 (Homo sapiens, UniProt Q9NPD5).
T4 sequence (Q9NPD5 1-702): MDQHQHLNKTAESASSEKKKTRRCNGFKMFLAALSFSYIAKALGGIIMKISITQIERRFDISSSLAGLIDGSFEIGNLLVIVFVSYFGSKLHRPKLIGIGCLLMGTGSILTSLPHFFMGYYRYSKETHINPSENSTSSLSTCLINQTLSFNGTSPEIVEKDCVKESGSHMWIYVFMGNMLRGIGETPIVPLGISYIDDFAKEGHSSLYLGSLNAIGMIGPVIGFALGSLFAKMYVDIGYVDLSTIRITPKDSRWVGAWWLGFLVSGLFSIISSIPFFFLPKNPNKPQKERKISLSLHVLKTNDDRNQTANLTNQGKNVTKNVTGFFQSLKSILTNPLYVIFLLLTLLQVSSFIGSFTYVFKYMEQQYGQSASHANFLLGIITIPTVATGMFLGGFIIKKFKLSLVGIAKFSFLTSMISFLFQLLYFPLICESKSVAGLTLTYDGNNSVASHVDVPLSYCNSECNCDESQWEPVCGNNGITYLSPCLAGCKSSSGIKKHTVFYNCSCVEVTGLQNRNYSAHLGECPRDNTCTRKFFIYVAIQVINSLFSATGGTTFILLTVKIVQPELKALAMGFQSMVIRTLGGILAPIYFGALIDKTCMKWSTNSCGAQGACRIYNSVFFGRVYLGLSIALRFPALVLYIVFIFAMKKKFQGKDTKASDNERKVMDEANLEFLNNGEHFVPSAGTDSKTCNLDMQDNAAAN

Sequence of MRP2 (Q92887 whole entry): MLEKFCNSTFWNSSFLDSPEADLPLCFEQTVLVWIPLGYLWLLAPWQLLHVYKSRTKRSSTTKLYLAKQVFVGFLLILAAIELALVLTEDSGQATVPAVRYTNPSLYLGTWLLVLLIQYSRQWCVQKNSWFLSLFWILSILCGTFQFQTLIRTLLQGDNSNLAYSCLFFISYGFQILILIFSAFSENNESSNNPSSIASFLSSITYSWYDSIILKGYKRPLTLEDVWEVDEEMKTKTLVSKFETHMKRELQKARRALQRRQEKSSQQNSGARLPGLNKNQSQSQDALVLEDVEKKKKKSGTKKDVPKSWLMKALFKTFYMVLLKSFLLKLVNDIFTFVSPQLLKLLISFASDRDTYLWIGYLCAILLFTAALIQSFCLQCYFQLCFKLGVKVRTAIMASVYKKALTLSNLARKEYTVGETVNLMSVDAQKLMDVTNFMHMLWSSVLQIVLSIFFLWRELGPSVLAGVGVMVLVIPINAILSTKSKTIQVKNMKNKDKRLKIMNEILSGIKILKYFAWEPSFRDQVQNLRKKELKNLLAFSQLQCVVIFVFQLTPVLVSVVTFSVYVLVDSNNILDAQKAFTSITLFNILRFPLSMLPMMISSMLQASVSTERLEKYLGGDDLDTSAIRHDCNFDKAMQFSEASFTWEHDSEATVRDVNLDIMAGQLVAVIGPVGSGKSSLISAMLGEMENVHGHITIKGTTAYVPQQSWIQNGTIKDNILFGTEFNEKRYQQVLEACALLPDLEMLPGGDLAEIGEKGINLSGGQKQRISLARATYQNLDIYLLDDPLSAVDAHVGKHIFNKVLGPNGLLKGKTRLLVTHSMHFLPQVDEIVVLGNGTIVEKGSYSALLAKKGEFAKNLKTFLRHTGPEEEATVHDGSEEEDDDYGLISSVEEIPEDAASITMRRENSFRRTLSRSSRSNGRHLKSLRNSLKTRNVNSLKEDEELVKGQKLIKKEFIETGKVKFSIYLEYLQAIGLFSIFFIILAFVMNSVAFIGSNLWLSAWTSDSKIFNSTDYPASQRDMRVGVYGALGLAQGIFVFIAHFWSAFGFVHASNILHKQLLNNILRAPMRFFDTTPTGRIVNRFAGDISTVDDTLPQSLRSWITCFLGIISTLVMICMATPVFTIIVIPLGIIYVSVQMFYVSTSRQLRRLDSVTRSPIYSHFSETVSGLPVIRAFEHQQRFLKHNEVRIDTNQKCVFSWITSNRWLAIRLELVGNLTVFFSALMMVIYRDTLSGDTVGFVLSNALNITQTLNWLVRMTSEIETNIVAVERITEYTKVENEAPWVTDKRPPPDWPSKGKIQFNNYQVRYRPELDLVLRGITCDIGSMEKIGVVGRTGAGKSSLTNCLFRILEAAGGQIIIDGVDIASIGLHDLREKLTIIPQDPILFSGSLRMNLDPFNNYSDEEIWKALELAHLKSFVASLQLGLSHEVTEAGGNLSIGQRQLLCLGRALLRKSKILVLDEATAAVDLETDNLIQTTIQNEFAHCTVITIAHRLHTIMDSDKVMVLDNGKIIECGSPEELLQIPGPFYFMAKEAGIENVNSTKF

For `CC(NC(C)(C)C)C(O)c1cccc(Cl)c1` (stereo not drawn) [EB, Erythrohydrobupropion], on MRP2, the “Substrate of MRP2 (conclusion)” value is given as “not substrates”; the “Difference in MRP2 vesicle uptake between ATP and AMP” value is “No significant differences”. The “Substrate of OATP1B1 (conclusion)” value at OATP1B1 [1] is given as “not substrates”. Further, on P-gp, the “Substrate of P-gp (conclusion)” value is recorded as “not substrates”; the “Difference in P-gp vesicle uptake between ATP and AMP” value is recorded as “No significant differences”. At BCRP, the “Substrate of BCRP (conclusion)” value was “not substrates”; the “Difference in BCRP vesicle uptake between ATP and AMP” value was “No significant differences”. For the same compound, at OATP1B1 [2], the “Inhibition of cellular uptake by RIF, OATP1B1-overexpressing cells” value (from here on “Inhibition of cellular uptake by RIF”) is recorded as “no statistically significant differences” and the “Apparent Vmax” value is reported as 1806±133 pmol/mg protein/min. Besides, the “Substrate of OCT1 (conclusion)” value on OCT1 was “not substrates”. The “Substrate of OATP1B3 (conclusion)” value at OATP1B3 is listed as “not substrates”.
In the case of `C[C@H]1NC(C)(C)CO[C@]1(O)c1cccc(Cl)c1` [OHB, Hydroxybupropion], on MRP2, the “Substrate of MRP2 (conclusion)” value is given as “not substrates”; the “Difference in MRP2 vesicle uptake between ATP and AMP” value is listed as “No significant differences”. Moreover, the “Substrate of OATP1B1 (conclusion)” value on OATP1B1 [1] is given as “not substrates”. Besides, on P-gp, the “Substrate of P-gp (conclusion)” value is given as “not substrates”; the “Difference in P-gp vesicle uptake between ATP and AMP” value is listed as “No significant differences”. For the same compound, on BCRP, the “Substrate of BCRP (conclusion)” value is “not substrates”; the “Difference in BCRP vesicle uptake between ATP and AMP” value is “No significant differences”. In addition, on OATP1B1 [2], the “Inhibition of cellular uptake by RIF” value was “no statistically significant differences” and the “Apparent Vmax” value is 1423 ± 49 pmol/mg protein/min. Also, the “Substrate of OCT1 (conclusion)” value on OCT1 is “not substrates”. On OATP1B3, the “Substrate of OATP1B3 (conclusion)” value is “not substrates”.
For `C[C@H](NC(C)(C)C)[C@@H](O)c1cccc(Cl)c1` [TB, Threohydrobupropion], at MRP2, the “Substrate of MRP2 (conclusion)” value was “not substrates”; the “Difference in MRP2 vesicle uptake between ATP and AMP” value is “No significant differences”. The “Substrate of OATP1B1 (conclusion)” value at OATP1B1 [1] is listed as “not substrates”. For the same compound, on P-gp, the “Substrate of P-gp (conclusion)” value is reported as “not substrates”; the “Difference in P-gp vesicle uptake between ATP and AMP” value was “No significant differences”. For the same compound, on BCRP, the “Substrate of BCRP (conclusion)” value was “not substrates”; the “Difference in BCRP vesicle uptake between ATP and AMP” value was “No significant differences”. For the same compound, on OATP1B1 [2], the “Inhibition of cellular uptake by RIF” value is “no statistically significant differences” and the “Apparent Vmax” value was found to be 1351±55 pmol/mg protein/min. On OCT1, the “Substrate of OCT1 (conclusion)” value is “not substrates”. For the same compound, the “Substrate of OATP1B3 (conclusion)” value at OATP1B3 is recorded as “not substrates”.
